Assays:
Assay in all cases: Trp fluorescence quenching at […] nm
Type in all cases: binding
[1] = molecular target: T1, berovin (apo-berovin, BAwt) (Beroe abyssicola, UniProt H8ZZK1, K90A/N107S)
T1 construct: gene BA2; monomeric

[2] = molecular target: T2, berovin (apo-berovin, BAwt) (Beroe abyssicola, UniProt H8ZZK1, K90M)
T2 construct: gene BA2; monomeric

berovin (apo-berovin) = molecular target: T3, berovin (apo-berovin) (Beroe abyssicola, UniProt H8ZZK1, K90M/N107S/W103F)
T3 construct: gene BA2; monomeric

[3] = molecular target: T4, berovin (apo-berovin, BAwt) (Beroe abyssicola, UniProt H8ZZK1)
T4 construct: gene BA2; monomeric
T4 sequence (H8ZZK1 1-208): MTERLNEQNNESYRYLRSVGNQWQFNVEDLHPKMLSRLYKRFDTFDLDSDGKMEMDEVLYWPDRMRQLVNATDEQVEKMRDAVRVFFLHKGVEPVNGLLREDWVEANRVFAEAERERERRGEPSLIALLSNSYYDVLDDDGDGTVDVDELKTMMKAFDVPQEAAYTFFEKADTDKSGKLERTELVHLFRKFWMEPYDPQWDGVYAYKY

T2 sequence (H8ZZK1 entry or part of it K90M): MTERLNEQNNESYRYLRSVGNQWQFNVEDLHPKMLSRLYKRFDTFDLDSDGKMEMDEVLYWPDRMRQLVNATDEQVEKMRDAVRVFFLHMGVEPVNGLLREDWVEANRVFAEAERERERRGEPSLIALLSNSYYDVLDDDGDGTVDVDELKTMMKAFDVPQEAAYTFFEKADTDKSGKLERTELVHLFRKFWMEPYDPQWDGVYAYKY
T3 sequence (H8ZZK1 entry or part of it K90M/W103F/N107S): as the sequence (H8ZZK1 entry or part of it K90M) above, with W103F, N107S counted along it
T1 sequence (H8ZZK1 entry or part of it K90A/N107S): as the sequence (H8ZZK1 entry or part of it K90M) above, with M90A, N107S counted along it

Kd [1]: 1.3 ± 0.15 µM
Kd [2]: 2.61 ± 0.28 µM
Kd (berovin (apo-berovin)): 6.62 ± 0.54 µM
Kd [3]: 4.72 ± 0.36 µM
Structure (SMILES): Oc1ccc(Cc2nc3c(Cc4ccccc4)nc(-c4ccc(O)cc4)cn3c2O)cc1 [coelenterazine]

— publication PMC11595719, “Design of Ctenophore Ca^2+-Regulated Photoprotein Berovin Capable of Being Converted into Active Protein Under Physiological Conditions: Computational and Experimental Approaches” (Life, 2024)
